Test results from ChEMBL document CHEMBL3885861, “Open TG-GATES”.

Organism: Rattus norvegicus
Experiment: Open TG-GATES - Regimen: Daily Repeat
Assay type: toxicity, organism-based, Sprague-Dawley
Parameters: regimen Daily Repeat, gender Male, age 6 weeks
Conditions: in vivo, po, 1000 mg/kg, route gavage, dose level High; for APTT / Bas / Eos / Fbg / Hb / Ht / Lym / MCH / MCHC / MCV / Mono / Neu / PT / Plat / RBC / Ret / WBC: tissue Blood; for KIDNEY_L / KIDNEY_R / KIDNEY_TOTAL: tissue Kidney; for LIVER: tissue Liver; for A/G / ALP / ALT / AST / BUN / CRE / Ca / Cl / DBIL / GLC / IP / K / LDH / Na / PL / RALB / TBIL / TC / TG / TP / gamma-GTP: tissue Plasma

CN/C(=N/CCSCc1nc[nH]c1C)NC#N [CIMETIDINE]
TERMINAL_BW (72 h, time 3 day): 228.7 g
APTT (72 h, time 3 day): 18.9 s
Bas (72 h, time 3 day): 0%
Eos (72 h, time 3 day): 1%
Fbg (72 h, time 3 day): 228.6 mg/dL
Hb (72 h, time 3 day): 13.1 g/dL
Ht (72 h, time 3 day): 38.7%
Lym (72 h, time 3 day): 80.8%
MCH (72 h, time 3 day): 21.1 pg
MCHC (72 h, time 3 day): 33.8%
MCV (72 h, time 3 day): 62.3 fL
Mono (72 h, time 3 day): 2.6%
Neu (72 h, time 3 day): 14.8%
PT (72 h, time 3 day): 12.7 s
Plat (72 h, time 3 day): 135 x10_4/uL
RBC (72 h, time 3 day): 620.4 x10_4/ul
Ret (72 h, time 3 day): 5.4%
WBC (72 h, time 3 day): 96.4 x10_2/uL
KIDNEY_L (72 h, time 3 day): 1 g
KIDNEY_R (72 h, time 3 day): 1 g
KIDNEY_TOTAL (72 h, time 3 day): 2 g
LIVER (72 h, time 3 day): 11.5 g
A/G (72 h, time 3 day): 1.6
ALP (72 h, time 3 day): 1004 IU/L
ALT (72 h, time 3 day): 40 IU/L
AST (72 h, time 3 day): 74 IU/L
BUN (72 h, time 3 day): 16.2 mg/dL
CRE (72 h, time 3 day): 0.4 mg/dL
Ca (72 h, time 3 day): 11 mg/dL
Cl (72 h, time 3 day): 102.8 meq/L
DBIL (72 h, time 3 day): 0.1 mg/dL
GLC (72 h, time 3 day): 201.6 mg/dL
IP (72 h, time 3 day): 7 mg/dL
K (72 h, time 3 day): 3.8 meq/L
LDH (72 h, time 3 day): 190.8 IU/L
Na (72 h, time 3 day): 140.8 meq/L
PL (72 h, time 3 day): 156.6 mg/dL
RALB (72 h, time 3 day): 3.4 g/dL
TBIL (72 h, time 3 day): 0.2 mg/dL
TC (72 h, time 3 day): 79.8 mg/dL
TG (72 h, time 3 day): 118.6 mg/dL
TP (72 h, time 3 day): 5.5 g/dL
gamma-GTP (72 h, time 3 day): 1.2 IU/L
TERMINAL_BW ([…], time 7 day): 263.6 g
TERMINAL_BW ([…], time 14 day): 302.5 g
TERMINAL_BW ([…], time 28 day): 396.8 g
APTT ([…], time 7 day): 16.9 s
Bas ([…], time 7 day): 0%
Eos ([…], time 7 day): 1%
Fbg ([…], time 7 day): 235.6 mg/dL
Hb ([…], time 7 day): 13.6 g/dL
Ht ([…], time 7 day): 40.7%
Lym ([…], time 7 day): 81%
MCH ([…], time 7 day): 21.1 pg
MCHC ([…], time 7 day): 33.5%
MCV ([…], time 7 day): 62.9 fL
Mono ([…], time 7 day): 2.6%
Neu ([…], time 7 day): 14.4%
PT ([…], time 7 day): 12.6 s
Plat ([…], time 7 day): 121.2 x10_4/uL
RBC ([…], time 7 day): 646.4 x10_4/ul
Ret ([…], time 7 day): 5%
WBC ([…], time 7 day): 94.8 x10_2/uL
APTT ([…], time 14 day): 20.1 s
Bas ([…], time 14 day): 0%
Eos ([…], time 14 day): 1%
Fbg ([…], time 14 day): 225.8 mg/dL
Hb ([…], time 14 day): 14.2 g/dL
Ht ([…], time 14 day): 43.3%
Lym ([…], time 14 day): 80.8%
MCH ([…], time 14 day): 19.5 pg
MCHC ([…], time 14 day): 32.6%
MCV ([…], time 14 day): 59.7 fL
Mono ([…], time 14 day): 2.2%
Neu ([…], time 14 day): 15.4%
PT ([…], time 14 day): 12.9 s
Plat ([…], time 14 day): 128 x10_4/uL
RBC ([…], time 14 day): 726.4 x10_4/ul
Ret ([…], time 14 day): 4.3%
WBC ([…], time 14 day): 110.4 x10_2/uL
APTT ([…], time 28 day): 19.4 s
Bas ([…], time 28 day): 0%
Eos ([…], time 28 day): 1.6%
Fbg ([…], time 28 day): 216.2 mg/dL
Hb ([…], time 28 day): 14.9 g/dL
Ht ([…], time 28 day): 43.2%
Lym ([…], time 28 day): 83.4%
MCH ([…], time 28 day): 19 pg
MCHC ([…], time 28 day): 34.4%
MCV ([…], time 28 day): 55.3 fL
Mono ([…], time 28 day): 2%
Neu ([…], time 28 day): 12.6%
PT ([…], time 28 day): 13.2 s
Plat ([…], time 28 day): 102.4 x10_4/uL
RBC ([…], time 28 day): 782 x10_4/ul
Ret ([…], time 28 day): 2.9%
WBC ([…], time 28 day): 177.7 x10_2/uL
KIDNEY_L ([…], time 7 day): 1.1 g
KIDNEY_R ([…], time 7 day): 1.1 g
KIDNEY_TOTAL ([…], time 7 day): 2.2 g
KIDNEY_L ([…], time 14 day): 1.2 g
KIDNEY_R ([…], time 14 day): 1.3 g
KIDNEY_TOTAL ([…], time 14 day): 2.5 g
KIDNEY_L ([…], time 28 day): 1.4 g
KIDNEY_R ([…], time 28 day): 1.4 g
KIDNEY_TOTAL ([…], time 28 day): 2.8 g
LIVER ([…], time 7 day): 12.9 g
LIVER ([…], time 14 day): 14.1 g
LIVER ([…], time 28 day): 16.4 g
A/G ([…], time 7 day): 1.4
ALP ([…], time 7 day): 1073 IU/L
ALT ([…], time 7 day): 38.4 IU/L
AST ([…], time 7 day): 72.2 IU/L
BUN ([…], time 7 day): 17 mg/dL
CRE ([…], time 7 day): 0.5 mg/dL
Ca ([…], time 7 day): 11 mg/dL
Cl ([…], time 7 day): 101.8 meq/L
DBIL ([…], time 7 day): 0.096 mg/dL
GLC ([…], time 7 day): 216 mg/dL
IP ([…], time 7 day): 7.9 mg/dL
K ([…], time 7 day): 4 meq/L
LDH ([…], time 7 day): 279.2 IU/L
Na ([…], time 7 day): 140.4 meq/L
PL ([…], time 7 day): 165.8 mg/dL
RALB ([…], time 7 day): 3.3 g/dL
TBIL ([…], time 7 day): 0.1 mg/dL
TC ([…], time 7 day): 79.4 mg/dL
TG ([…], time 7 day): 134.4 mg/dL
TP ([…], time 7 day): 5.6 g/dL
gamma-GTP ([…], time 7 day): 1.8 IU/L
A/G ([…], time 14 day): 1.4
ALP ([…], time 14 day): 808 IU/L
ALT ([…], time 14 day): 31.2 IU/L
AST ([…], time 14 day): 62.2 IU/L
BUN ([…], time 14 day): 19 mg/dL
CRE ([…], time 14 day): 0.4 mg/dL
Ca ([…], time 14 day): 10.7 mg/dL
Cl ([…], time 14 day): 101.8 meq/L
DBIL ([…], time 14 day): 0.1 mg/dL
GLC ([…], time 14 day): 213.4 mg/dL
IP ([…], time 14 day): 7.7 mg/dL
K ([…], time 14 day): 3.7 meq/L
LDH ([…], time 14 day): 186.8 IU/L
Na ([…], time 14 day): 141 meq/L
PL ([…], time 14 day): 165.6 mg/dL
RALB ([…], time 14 day): 3.4 g/dL
TBIL ([…], time 14 day): 0.2 mg/dL
TC ([…], time 14 day): 85.8 mg/dL
TG ([…], time 14 day): 111.2 mg/dL
TP ([…], time 14 day): 5.8 g/dL
gamma-GTP ([…], time 14 day): 1.8 IU/L
A/G ([…], time 28 day): 1.1
ALP ([…], time 28 day): 637.6 IU/L
ALT ([…], time 28 day): 40 IU/L
AST ([…], time 28 day): 66.6 IU/L
BUN ([…], time 28 day): 20.4 mg/dL
CRE ([…], time 28 day): 0.6 mg/dL
Ca ([…], time 28 day): 10.2 mg/dL
Cl ([…], time 28 day): 101 meq/L
DBIL ([…], time 28 day): 0.1 mg/dL
GLC ([…], time 28 day): 284 mg/dL
IP ([…], time 28 day): 8.1 mg/dL
K ([…], time 28 day): 3.5 meq/L
LDH ([…], time 28 day): 178.2 IU/L
Na ([…], time 28 day): 140 meq/L
PL ([…], time 28 day): 158.2 mg/dL
RALB ([…], time 28 day): 3.1 g/dL
TBIL ([…], time 28 day): 0.2 mg/dL
TC ([…], time 28 day): 77.8 mg/dL
TG ([…], time 28 day): 113.6 mg/dL
TP ([…], time 28 day): 5.9 g/dL
gamma-GTP ([…], time 28 day): 1.4 IU/L
